In patent US12551541B2, “Albumin bound macromolecule tri-agonist activating GLP 1/GIP/glucagon receptors and methods therefor” (AlbuNext, LLC, priority 2023, dated 2026):

Assays:
[1] = test system: DIO (diet induced obesity) mice; assay: DIO (diet induced obesity) mice, single subcutaneous injection, NASH; format: in vivo; details: single dosage of 100 nmol/kg, over 26 days
Description: In still further experiments to confirm that contemplated compounds presented herein are also effective as modulators for hepatic metabolism, and particularly in the treatment and even at least partial reversion of NASH (non-alcoholic […]), the inventors tested selected compounds in DIO (diet induced obesity) mice. […] The body weight of all treated animals was recorded over 26 days, and average body weight over time for 16 and 26 days are shown in FIG. 34A and FIG. 34B, respectively.
To investigate liver function and metabolism, liver weight was determined at the end of the study and results are shown in FIG. 38. […] In addition, liver function was assessed at the end of the study by testing AST (aspartate aminotransferase) and ALT (alanine transaminase).
In still further tests for hepatic metabolic modulation, the inventors also determined total cholesterol and LDL cholesterol at the end of the study, and exemplary results are shown in FIG. 41 (for total cholesterol) and FIG. 42 (for LDL cholesterol). […] As diet induced obesity is also often associated with inflammation, the inventors also measured levels of selected pro-inflammatory cytokines. Here, IL-1α and IL-6 levels were determined at the end of the study.

[2] = 0.16 pmol/kg per minute; cited from earlier work
[3] = in vivo; cited from earlier work
GLP-1 receptor = GLP-1 receptor (Homo sapiens, UniProt P43220); details: cited from earlier work
Chain of GLP-1 receptor (P43220 24-463, species assumed): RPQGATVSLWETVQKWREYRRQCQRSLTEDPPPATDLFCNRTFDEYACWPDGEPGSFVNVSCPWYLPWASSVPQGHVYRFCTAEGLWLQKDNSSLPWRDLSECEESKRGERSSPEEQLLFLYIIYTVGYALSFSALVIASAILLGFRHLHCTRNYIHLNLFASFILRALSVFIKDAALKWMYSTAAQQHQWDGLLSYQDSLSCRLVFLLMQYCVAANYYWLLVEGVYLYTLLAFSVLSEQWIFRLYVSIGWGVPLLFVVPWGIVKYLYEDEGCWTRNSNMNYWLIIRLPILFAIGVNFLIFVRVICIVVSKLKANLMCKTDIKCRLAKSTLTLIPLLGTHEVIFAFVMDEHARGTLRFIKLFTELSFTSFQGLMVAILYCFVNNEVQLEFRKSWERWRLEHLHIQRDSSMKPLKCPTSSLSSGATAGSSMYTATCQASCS

[4] = monotherapy, cited from earlier work

semaglutide [reference compound]
body weight [1]: effective in reduction of body weight

GLP-1: naturally occurring hormone released by L cells in the lower intestine
adverse events [2]: vomiting within eight minutes

albiglutide
half-life [3]: 140 to 190 h
GLP-1 receptor affinity (GLP-1 receptor): 20 nM
decrease in HbA1c from baseline ([4]; 30 mg weekly dose, week 52): −0.7%
change from baseline of HbA1c ([4]; 50 mg weekly dose): −0.9%
